Measurements: patent publication US20210087159A1, “TETRAHYDROCANNABINOLIC- CA[…] DERIVATIVES AND USES THEREOF” (AL&AM […]., priority 2018, published 2021)
pIC50: −log10 of the molar value. Read-outs that look alike come from different tables or passages of the source.

Tests used:
Test in all cases: CellTiter-Glo cell viability assay, cancer cell cytotoxicity/anti-proliferation panel (Chempartner)
Format in all cases: cell-based
[1] = tested on: T47D, breast ductal carcinoma; conditions: for pIC50: Homo sapiens; for Inhibition: compounds 10 μM starting, STS 2 μM starting
U251, brain human glioma = conditions: for pIC50: Homo sapiens, U-251, 72 h, read-out: IC50 (absolute IC50); for Inhibition: U251, 72 hours, compounds 10 μM starting, STS 2 μM starting, 10-pt, 3-fold dilution
[2] = tested on: PANC-1, pancreas ductal carcinoma; conditions: for pIC50: Homo sapiens, PANC-1, 72 h, read-out: IC50 (absolute IC50); for Inhibition: PANC-1, 72 hours, compounds 10 μM starting, STS 2 μM starting, 10-pt, 3-fold dilution
OMP-2, multiple myeloma = conditions: for pIC50: 72 h, read-out: IC50 (absolute IC50); for Inhibition: OMP-2, 72 hours, compounds 10 μM starting, STS 2 μM starting, 10-pt, 3-fold dilution
[3] = tested on: SK-HEP-1, liver adenocarcinoma; conditions: for pIC50: Homo sapiens, SK-HEP1, 72 h, read-out: IC50 (absolute IC50); for Inhibition: SK-HEP-1, 72 hours, compounds 10 μM starting, STS 2 μM starting, 10-pt, 3-fold dilution
[4] = T47D, 72 h, read-out: IC50 (absolute IC50)
[5] = T47D, 72 hours, 10-pt, 3-fold dilution

SMILES	pIC50 ([1]; Table 5, T47D cells, 72 hours, read-out: AbsIC50)	Inhibition % ([1]; Table 5, T47D cells, 72 hours, 10 μM starting, 10-pt, 3-fold dilution)	pIC50 (U251, brain human glioma)	Inhibition (U251, brain human glioma)	pIC50 [2]	Inhibition [2]	pIC50 (OMP-2, multiple myeloma)	Inhibition (OMP-2, multiple myeloma)	pIC50 [1, 4]	Inhibition [1, 5]	pIC50 [3]	Inhibition [3]
C=C(C)[C@@H]1CCC(C)=C[C@H]1c1c(O)cc(CCCCC)c(C(=O)NCCCN2CCOCC2)c1O [Ia28, (1′R,2′R)-2,6-dihydroxy-5′-methyl-N-(3-morpholinopropyl)-4-pentyl-2′-(prop-1-en-2-yl)-1′,2′,3′,4′-tetrahydro-[1,1′-biphenyl]-3-carboxamide]	< 5.00	14.85%	–	–	–	–	–	–	–	–	–	–
CCCCCc1cc2c(c(O)c1C(=O)NCCCN1CCOCC1)[C@@H]1C=C(C)CC[C@H]1C(C)(C)O2 [Ia9, (6aR,0aR)-1-hydroxy-6,6,9-trimethyl-N-(3-morpholinopropyl)-3-pentyl-6a,7,8,10a-tetrahydro-6H-benzo[c]chromene-2-carboxamide]	–	–	5.05	68.11%	5.26	92.19%	5.17	76.40%	5.26	97.90%	5.27	78.20%
CCCCCc1cc2c(c(O)c1C(=O)O)[C@@H]1C=C(C)CC[C@H]1C(C)(C)O2 [THCA, tetrahydrocannabinolic acid, reference compound]	–	–	< 5.00	17.22%	< 5.00	15.20%	< 5.00	5.94%	< 5.00	18.20%	< 5.00	16.52%
CCCCCc1cc2c(c(O)c1C(=O)NCCN(C)C)[C@@H]1C=C(C)CC[C@H]1C(C)(C)O2 [Ia6, (6aR,0aR)—N-(2-(dimethylamino)ethyl)-1-hydroxy-6,6,9-trimethyl-3-pentyl-6a,7,8,10a-tetrahydro-6H-benzo[c]chromene-2-carboxamide]	–	–	5.14	70.02%	5.22	90.10%	< 5.00	47.73%	5.22	84.19%	< 5.00	49.38%
